Reference: publication PMC9988422, “Usefulness of a humanized tricellular static transwell blood–brain barrier model as a microphysiological system for drug development applications. - A case study based on the benchmark evaluations of blood-brain barrier microphysiological system” (Regenerative Therapy, 2023)
Each block holds one compound with its values, some of them ahead of it.

Key:
Glut1 = target: T1, Glut1 (Homo sapiens, UniProt P11166); assay: Bidirectional transport assay in the human in vitro BBB model, Glut1 substrate; assay type: in vitro ADME; conditions: 2-NBDG 100 μg/ml
T1 construct: endogenous in cells; host or cells: HBMEC/ci18 co-cultured with HBPC/ci37 and HASTR/ci35 (transwell)
T1 sequence (P11166 1-492): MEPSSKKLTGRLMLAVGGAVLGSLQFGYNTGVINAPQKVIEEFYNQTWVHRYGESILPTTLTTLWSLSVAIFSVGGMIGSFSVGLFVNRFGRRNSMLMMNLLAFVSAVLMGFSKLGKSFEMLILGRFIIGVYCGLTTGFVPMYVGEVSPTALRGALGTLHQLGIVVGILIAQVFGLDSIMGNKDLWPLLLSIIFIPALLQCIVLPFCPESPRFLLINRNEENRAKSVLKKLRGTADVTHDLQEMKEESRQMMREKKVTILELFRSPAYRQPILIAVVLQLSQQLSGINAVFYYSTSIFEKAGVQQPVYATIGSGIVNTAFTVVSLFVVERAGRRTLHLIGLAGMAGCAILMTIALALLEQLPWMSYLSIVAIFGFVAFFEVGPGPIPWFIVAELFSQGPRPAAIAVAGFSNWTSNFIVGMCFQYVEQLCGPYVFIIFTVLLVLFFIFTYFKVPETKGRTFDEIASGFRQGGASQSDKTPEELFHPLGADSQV
Experimental: (§1) In vitro human BBB models were developed by combining three immortalized cell lines). Briefly, HBPC/ci37 cells were seeded on the bottom side of the collagen IV- and Fibronectin-coated polycarbonate membrane of a transwell insert (Millicell cell culture insert 24-well hanging inserts, 0.4 μm […]; Merck, Darmstadt, Germany) at a density of 1.0 × 10^4 cells/insert. The cells were then cultured for 1 day to allow them to attach firmly. HASTR/ci35 cells were seeded (5.0 × 10^4 cells/well) on collagen I-coated 24-well plates (Greiner Bio-one, Frickenhausen, Germany) and maintained in astrocyte culture medium. HBPC/ci37 cells were induced to differentiate by replacing the pericyte medium with pericyte differentiation medium, which was consisted of FBS- and blasticidin S-free pericyte medium; HASTR/ci35 cells were induced to differentiate by replacing the astrocyte culture medium with astrocyte differentiation medium, which was consisted of FBS- and blasticidin S-free astrocyte growth medium supplemented with 1 mM adenosine 3′,5′-cyclic monophosphate sodium salt monohydrate. After the differentiation media were added, both cell lines were cultured at 37 °C for 24 h. To start a coculture, HBMEC/ci18 cells were seeded on the inner side of the HBPC/ci37 cell culture insert at a density of 1.0 × 10^5 cells. […]

[1] = Permeability assay with permeable and nonpermeable compounds in the human in vitro BBB model; conditions: human
Experimental: as §1

[2] = test system: human in vitro BBB model (HBMEC/ci18, HBPC/ci37, HASTR/ci35); assay: as above
Experimental: as §1

Compound: O=[N+]([O-])c1ccc(N[C@H]2C(O)O[C@H](CO)[C@@H](O)[C@@H]2O)c2nonc12 (stereo partly shown) [2-NBDG]
Efflux Ratio Mean (Glut1; mean of 4 independent experiments): 1.1
Efflux Ratio (Pe (B to A)/Pe (A to B)) (Glut1; single independent experiment): 1.01

Compound: Cn1c(=O)c2c(ncn2C)n(C)c1=O [caffeine]
Papp at 5 μM [1]: 1160 ± 492 ×10⁻⁶ cm/s

Pe value (permeability coefficient) [2]: 90.2 ± 23.1 × 10^−6 cm/s
Compound: Lucifer Yellow
